The results in this text go back to ChEMBL document CHEMBL5104126, “Discovery of 2,3-dihydro-1H-pyrrolo[3,4-b]quinolin-1-one derivatives as possible antileishmanial agents” (RSC Med Chem, 2022).

The structures appear in SMILES notation. Some results are limits rather than exact numbers.

Data set [1] concerns J774. The data set is described as follows: Cytotoxicity against mouse macrophage J774 cells assessed as reduction in cell viability at 50 to 100 uM incubated for 72 hrs by MTT assay. The class given is toxicity, cell-based. Conditions: j774, 72 h, dose 50-100 µM. In general terms: Tetrazolium dyes change colour on reduction, which living cells bring about.
For data set [2], the system named is J774. Nature of the data set: Cytotoxicity against mouse macrophage J774 cells assessed as reduction in cell viability at 6.25 to 25 uM incubated for 72 hrs by MTT assay. The class given is toxicity, cell-based. Conditions: j774, 72 h, dose 6.25-25 µM.
The subject of data set [3] is Leishmania donovani. The data set is described as follows: Antileishmanial activity against Leishmania donovani MHOM/IN/80/Dd8 promastigotes harboring luciferase gene infected in mouse J774 cells assessed as inhibition of parasite viability at 25 uM incubated for 72 hrs by Steady-Glo reagent based luciferase assay relative to control. The class given is functional. Conditions: MHOM/IN/80/Dd8, J774.

Data set [4] relates to Leishmania donovani. The data set is described as follows: Antileishmanial activity against Leishmania donovani MHOM/IN/80/Dd8 amastigotes harboring luciferase gene infected in mouse J774 cells assessed as inhibition of parasite viability at 25 uM incubated for 72 hrs by Steady-Glo reagent based luciferase assay relative to control. The class given is functional. Conditions: MHOM/IN/80/Dd8, J774.

Data set [5] has as its system Leishmania donovani. The data set is described as follows: Antileishmanial activity against Leishmania donovani MHOM/IN/80/Dd8 amastigotes harboring luciferase gene infected in mouse J774 cells assessed as inhibition of parasite viability incubated for 72 hrs by Steady-Glo reagent based luciferase assay relative to control. The class given is functional, organism-based. Conditions: MHOM/IN/80/Dd8, J774, 72 h.

In data set [6] the test system is Leishmania donovani. The data set is described as follows: Antileishmanial activity against Leishmania donovani MHOM/IN/80/Dd8 promastigotes harboring luciferase gene infected in mouse J774 cells assessed as inhibition of parasite viability incubated for 72 hrs by Steady-Glo reagent based luciferase assay relative to control. The class given is functional, organism-based. To be noted: MHOM/IN/80/Dd8, J774, 72 h.

Data set [7] in a line: Cytotoxicity against mouse macrophage J774 cells assessed as inhibition of cell viability incubated for 72 hrs by MTT assay. The class given is toxicity, cell-based.
Data set [8] can be described thus: Cytotoxicity against human HepG2 cells assessed as inhibition of cell viability incubated for 72 hrs by MTT assay. The class given is toxicity, cell-based.
A short description of data set [9]: Selectivity index, ratio of CC50 for cytotoxicity against mouse macrophage J774 cells to IC50 for antileishmanial activity against Leishmania donovani MHOM/IN/80/Dd8 amastigotes harboring luciferase gene infected in mouse J774 cells. Conditions: read-out: Ratio CC50/IC50. The class given is toxicity, cell-based.
A short description of data set [10]: Selectivity index, ratio of CC50 for cytotoxicity against human HepG2 cells to IC50 for antileishmanial activity against Leishmania donovani MHOM/IN/80/Dd8 amastigotes harboring luciferase gene infected in mouse J774 cells. The class given is toxicity, cell-based. To be noted: read-out: Ratio CC50/IC50.
In data set [11] the test system is Leishmania donovani. The data set is described as follows: Antileishmanial activity against Leishmania donovani MHOM/IN/80/Dd8 promastigotes infected in Balb/c mouse assessed as inhibition organ parasite burden in liver at 25 mg/kg, ip for 7 days by Giemsa staining based microscopy. To be noted: MHOM/IN/80/Dd8, 168 h, time 7 day. The class given is functional.

Data set [12] deals with Leishmania donovani. The data set is described as follows: Antileishmanial activity against Leishmania donovani MHOM/IN/80/Dd8 promastigotes infected in Balb/c mouse assessed as inhibition organ parasite burden in spleen at 25 mg/kg, ip for 7 days by Giemsa staining based microscopy. The class given is functional. Conditions: MHOM/IN/80/Dd8, 168 h, time 7 day.
For the next data set, the system named is Leishmania mexicana. The data set is described as follows: Antileishmanial activity against Leishmania mexicana 227 assessed as inhibition of parasite viability. The class given is functional, organism-based.

For the compound `COc1ccc2nc3c(c(-c4ccccc4)c2c1)C(=O)N(CC(=O)NC(C)(C)C)C3`, the Activity entry was “>= 30%” in the data set on J774 [1] and “Non-Toxic” in the data set with J774 [2]. Moreover, the inhibition (usually the share of the control response that was lost under treatment) at 25 µM in the data set on Leishmania donovani [3] is 40%; in the data set on Leishmania donovani [4], 45%. In the data set on Leishmania donovani [5], the IC50 (as a rule, the midpoint of a concentration-inhibition curve) was 8.39 µM.

Regarding `CCCCCCCCCCCCCCCCOP(=O)([O-])OCC[N+](C)(C)C` [MILTEFOSINE], the half-inhibitory concentration (IC50) worked out at 6.86 µM in the data set with Leishmania donovani [5] and 6.12 µM in the data set on Leishmania donovani [6]. Further, the CC50 (as a rule, the concentration that lowers cell viability or growth by half) at 72 h worked out at 72.4 µM in data set [7] and 78.6 µM in data set [8]. Besides, the values for the selectivity ratio in [9] and in data set [10] were 11.8 and 12.8, respectively. Besides, the inhibition in vivo (in general, the drop in the measured response relative to a control, in per cent) at 25 mg/kg is 97.4% in the data set with Leishmania donovani [11] and 98.9% in the data set on Leishmania donovani [12].

With `CC(C)(C)NC(=O)C(C)(C)N1Cc2nc3ccc(Br)cc3c(-c3ccccc3)c2C1=O`, the Activity result was “>= 30%” in the data set on J774 [1] and “Non-Toxic” in the data set with J774 [2]. In addition, the inhibition at 25 µM in the data set with Leishmania donovani [3] is > 70%; with Leishmania donovani [4] it was 45%. For the same compound, the IC50 in the data set on Leishmania donovani [5] worked out at 10.3 µM.

For the compound `CCCCCCOc1c(OC)cc(NC(C)CCCN)c2nccc(C)c12` (stereo unspecified) [WR-242511], the IC50 with Leishmania mexicana turned out to be 2.5 µM.

As for `COc1ccc2nc3c(c(-c4ccccc4)c2c1)C(=O)N(C(C(=O)NC(C)(C)C)c1ccc(F)cc1)C3` (stereo unspecified), the Activity result with J774 [1] is recorded as “>= 30%”; in the data set with J774 [2], “Non-Toxic”. Further, the figures for the inhibition at 25 µM with Leishmania donovani [3] and with Leishmania donovani [4] were 40% and 45%, respectively.

As to `COc1ccc2nc3c(c(C)c2c1)C(=O)N(C(C)(C)C(=O)NC(C)(C)C)C3`, the Activity result with J774 [1] is reported as “>= 30%”; in the data set with J774 [2] it was “Non-Toxic”. The inhibition at 25 µM with Leishmania donovani [3] is > 70%; in the data set with Leishmania donovani [4], 45%. Moreover, in the data set with Leishmania donovani [5], the IC50 turned out to be 7.42 µM.

Regarding `COc1ccc2nc3c(c(-c4ccccc4)c2c1)C1=NC(=O)C(c2ccc(Cl)cc2)N1C3` (stereo unspecified), the Activity result in the data set with J774 [1] was “>= 30%”; with J774 [2] it was “Non-Toxic”. Besides, the inhibition at 25 µM in the data set with Leishmania donovani [3] worked out at 39%; in the data set on Leishmania donovani [4] it was 31%.

With `COc1ccc2nc3c(c(-c4ccccc4)c2c1)C(=O)N(C1(C(=O)NC(C)(C)C)CCCCC1)C3`, the Activity entry is on record as “>= 30%” with J774 [1] and “Non-Toxic” in the data set with J774 [2]. Moreover, the inhibition at 25 µM with Leishmania donovani [3] was > 70%; in the data set on Leishmania donovani [4], 45%. Also, in the data set on Leishmania donovani [5], the IC50 was determined as 5.35 µM.

On to `CC(C)(C(N)=O)N1Cc2nc3ccc(Cl)cc3c(-c3ccccc3)c2C1=O`, for which the Activity result in the data set on J774 [1] was “>= 30%”; in the data set on J774 [2] it was “Non-Toxic”. The inhibition at 25 µM is 61% in the data set on Leishmania donovani [3] and 46% with Leishmania donovani [4].

As to `CC(C)(C)NC(=O)C(C)(C)N1Cc2nc3ccccc3c(-c3ccccc3)c2C1=O`, the Activity result in the data set on J774 [1] is on record as “>= 30%”; in the data set with J774 [2], “Non-Toxic”. In addition, the inhibition at 25 µM in the data set on Leishmania donovani [3] was determined as 40%; in the data set on Leishmania donovani [4], 45%.

For the compound `COc1ccc2nc3c(c(-c4ccccc4)c2c1)C(=O)N(C(C(=O)NC(C)(C)C)c1ccccc1)C3` (stereo unspecified), the Activity entry in the data set with J774 [1] is listed as “>= 30%”; in the data set with J774 [2], “Non-Toxic”. In addition, the inhibition at 25 µM in the data set on Leishmania donovani [3] is > 70%; in the data set with Leishmania donovani [4], 45%.

With `COc1ccc(C(C(=O)NC(C)(C)C)N2Cc3nc4ccc(OC)cc4c(-c4ccccc4)c3C2=O)cc1` (stereo unspecified), the Activity entry in the data set with J774 [1] was “>= 30%”; in the data set on J774 [2], “Non-Toxic”. The inhibition at 25 µM was 40% with Leishmania donovani [3] and 45% in the data set with Leishmania donovani [4].

`COc1ccc2nc3c(c(-c4ccccc4)c2c1)C(=O)N(C(C(=O)NC(C)(C)C)c1ccc(C#N)cc1)C3` (stereo unspecified): the Activity entry was “>= 30%” in the data set on J774 [1] and “Non-Toxic” with J774 [2]. Also, the inhibition at 25 µM with Leishmania donovani [3] amounted to 40%; in the data set on Leishmania donovani [4], 45%.

Turning to `COc1ccc2nc3c(c(-c4ccccc4)c2c1)C(=O)N(C(C(=O)NC(C)(C)C)c1ccc(Cl)cc1)C3` (stereo unspecified), the Activity entry with J774 [1] was “>= 30%”; in the data set on J774 [2] it was “Non-Toxic”. The inhibition at 25 µM with Leishmania donovani [3] was 40%; in the data set on Leishmania donovani [4], 45%. Besides, the IC50 in the data set on Leishmania donovani [5] is 10.5 µM.

Take `COc1ccc2nc3c(c(-c4ccccc4)c2c1)C1=NC(=O)C2(CCCCC2)N1C3`: the Activity result is “>= 30%” in the data set with J774 [1] and “Non-Toxic” with J774 [2]. Moreover, the inhibition at 25 µM with Leishmania donovani [3] amounted to 39%; in the data set with Leishmania donovani [4] it was 31%.

For `COc1ccc2nc3c(c(-c4ccccc4)c2c1)C(=O)N(C(C(N)=O)c1ccc(F)cc1)C3` (stereo unspecified), the Activity result in the data set on J774 [1] was “>= 30%”; with J774 [2], “Non-Toxic”. The results for the inhibition at 25 µM with Leishmania donovani [3] and in the data set with Leishmania donovani [4] were 61% and 46%, respectively. Moreover, the IC50 in the data set on Leishmania donovani [5] was 8.75 µM.
